Here are results for two compounds from patent US20200054646A1, “USE OF PHENOTHIAZINE DERIVATIVE IN THE TREATMENT OF INFECTIOUS PURPURA OR PURPURA FULMINANS” (priority 2016, published 2020).

SMILES strings stand for the structures.

For assay [1], the system named is Enteropathogenic Escherichia Coli (EPEC escN mutant, GFP) microcolonies on HBMEC. The assay is described as follows: Dispersion of EPEC microcolonies at the surface of human endothelial cells. The conditions noted are these: 10 to 50 μM, 30 min, dose-dependent. The assay is classed as cell-based. The protocol: Human bone marrow microvascular endothelial cells (HBMEC) were infected with a GFP-expressing mutant Enteropathogenic Escherichia Coli, which lacks the ATPase escN (EPEC […]escN-GFP) for 2 h, then treated with Trifluoperazine (10-50 μM) for 30 minutes, before fixation and immunofluorescence analysis using Alexa Fluor 633 Phalloidin. (A) Representative fluorescence microscopy showing bacterial colony (white dots) formed at the surface of the endothelial cells. (B) Quantification of the bacterial colonization was performed using Image J software.
HBMEC were grown on Thermanox coverslips coated with gelatin 2% for 2 days to reach confluency. Cells were then infected for 1 h with a GFP-expressing mutant Enteropathogenic Escherichia Coli (EPEC), which lacks the ATPase escN. This strain is unable to translocate effector proteins and is more prone to form pilus-dependent microcolony at the host cell surface (Jensen et al., 2015). Cells were then washed three times with medium to remove non-adherent bacteria and infection was pursued for 1 extra hour, to allow bacterial growth at the endothelial cell surface to form microcolonies. Trifluoperazine was then added to obtain final concentrations of 10, 20, 30 and 50 μM. After incubation for 30 minutes, cells were washed and fixed in 4% Paraformaldehyde for 10 min, washed three times with PBS. […] Quantification was done with ImageJ software (NIH). […]

Assay [2] relates to Nm2C4.3 adhesion to human dermal microvascular endothelial cells (HDMECs). The assay can be described thus: Meningococcal adhesion to endothelial cells after pretreatment of bacteria. Conditions: bacteria pre-treated with 30 μM for 30 minutes. The assay is classed as cell-based, Neisseria meningitidis. The protocol: Nm2C4.3 grown in suspension were pretreated in the absence or in the presence of 30 μM Trifluoperazine for 30 minutes before adhesion to human dermal microvascular endothelial cells (HDMECs) for 30 minutes. Infection was allowed to proceed for further 30, 60 or 90 minutes before fixation and immunostaining using anti-Nm2C4.3 antibody and Alexa Fluor 633 Phalloidin. (A) Representative fluorescence microscopy showing bacterial colony (white dots) formed at the surface of the endothelial cells. (B) Quantification of the bacterial colonization was performed using Image J software.

In assay [3] the test system is Nm2C4.3 microcolonies on HCMEC/D3. It is filed as cell-based, Neisseria meningitidis.
The subject of assay [4] is HDMECs colonized by N. meningitidis. The assay is described as follows: Basement membrane remodelling: Gelatin-FITC matrix degradation by infected HDMEC. The assay is classed as cell-based, human. The conditions noted are these: infected cells, 150 μg/ml Gentamicin alone, 24 h post-infection. The protocol:
(A) Experimental procedure: HDMECs grown on a fluorescent matrix (Gelatin-Fitc) were colonized by N. meningitidis for 6 h. They were then treated with 150 μg/ml gentamicin for 1 h, then 15 min with Trifluoperazine (50 μM) (or solvent alone as control) and incubated for further 15 h in the presence of 150 μg/ml gentamicin. (B) Fluorescence microscopy was used to visualize cells stained with labelled phalloidin and the fluorescent matrix. The presence of dark zones corresponds to zones of matrix degradation. (C) Quantification of the percentage of matrix degradation, using Image J software.
Plastic coverslips (13 mm diameter) (Nalgen #174950) were washed in ethanol 70%, dried then coated with poly-L-lysine 1 mg/ml for 20 min at room temperature. After one wash in sterile PBS, 0.5% Glutaraldehyde was added for 15 min at room temperature. After three washes in PBS, Gelatin-FITC (0.2 mg/ml Invitrogen #G13187) was added for 10 minutes at room temperature in the dark. Coverslip were then washed with sterile PBS and treated with 5 mg/ml sodium borohydride for 3 min. After three washes in sterile PBS, 10^5 HDMECs (PromoCell #C-12210) were seeded per well in their PromoCell culture medium and incubated overnight at 37° C. 5% CO2. The day after, cells were infected with Neisseria meningitidis Nm2C4.3, as above described. […] Quantifications were performed using ImageJ software (NIH).

As to `CN1CCN(CCCN2c3ccccc3Sc3ccc(C(F)(F)F)cc32)CC1` [Trifluoperazine], in assay [1], the “dispersion of EPEC microcolonies” value was “induced the dispersion”. Besides, the “adhesion / colony formation at the endothelial cell surface by pre-treated bacteria” value in assay [2] is recorded as “did no longer adhere”. In addition, the “concentration range of dose-dependent microcolony dispersion” value in assay [3] (30 min, HCMEC/D3) lay in the range of 10 to 40 µM. In addition, the “dispersion of microcolonies on human brain endothelial cells” value in assay [3] (treatment for 30 min) is recorded as “induced their dispersion”.
Turning to `CN[C@@H]1[C@@H](O)C(O[C@@H]2[C@@H](O)[C@H](O[C@H]3O[C@H]([C@@H](C)NC)CC[C@H]3N)[C@@H](N)C[C@H]2N)OC[C@]1(C)O` (stereo partly drawn) [Gentamicin, (3R,4R,5R)-2-{[(1S,2S,3R,4S,6R)-4,6-diamino-3-{[(2R,3R,6S)-3-amino-6-[(1R)-1-(methylamino)ethyl]oxan-2-yl]oxy}-2-hydroxycyclohexyl]oxy}-5-methyl-4-(methylamino)oxane-3,5-diol], in assay [4], the “degradation of the basement membrane” value was “about 20%”.
